Legend:
Assay in all cases: relative viability (nuclei count vs DMSO), 5 days (fraction); higher = more cells survive
[1] = compound: O=C(NC1CCNCC1)c1n[nH]cc1NC(=O)c1c(Cl)cccc1Cl [AT-7519] + N=C(N)NC(=N)NCCc1ccccc1 [Phenformin] (partner 250 µM)
Method in brief: (§1)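 Lung cancer cell lines in 1536-well plates were dosed by pin tool the day after seeding, either with one drug alone or with a fixed anchor-drug dose plus five library-drug doses (not always all listed) in √10 steps. After 5 days, cells were fixed and their nuclei stained in one step (final 0.05% Triton X-100, 1% formaldehyde, 1 ug/ml Hoechst), then counted on 4× images. Relative viability is the nuclei count in treated wells divided by that in vehicle wells. Values are medians of duplicate plates.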

[2] = compound: C1=CC2=C(C=C(C(=C2N=C1)O)N=NC3=CC4=C(C=C3)C=C(C=C4)S(=O)(=O)O)S(=O)(=O)O + CC(C)C[C@H](NC(=O)[C@H](Cc1ccccc1)NC(=O)c1cnccn1)B(O)O [Bortezomib] (partner 0.002 µM)
Method in brief: as §1

[3] = compound: C1=CC2=C(C=C(C(=C2N=C1)O)N=NC3=CC4=C(C=C3)C=C(C=C4)S(=O)(=O)O)S(=O)(=O)O + Nc1nc2[nH]cc(CCc3ccc(C(=O)N[C@@H](CCC(=O)O)C(=O)O)cc3)c2c(=O)[nH]1 [Pemetrexed] (partner 0.2 µM)
Method in brief: as §1

[4] = compound: C1=CC2=C(C=C(C(=C2N=C1)O)N=NC3=CC4=C(C=C3)C=C(C=C4)S(=O)(=O)O)S(=O)(=O)O + CC1(C)CCC(c2ccc(Cl)cc2)=C(CN2CCN(c3ccc(C(=O)NS(=O)(=O)c4ccc(N[C@H](CCN5CCOCC5)CSc5ccccc5)c(S(=O)(=O)C(F)(F)F)c4)cc3)CC2)C1 [Navitoclax] (partner 0.5 µM)
Method in brief: as §1

Row | Cell Line | relative viability ([1]; first compound 0.01 µM) | relative viability ([1]; first compound 0.03162 µM) | relative viability ([1]; first compound 0.3162 µM) | relative viability ([1]; first compound 1 µM) | relative viability ([2]; first compound 0.08 µM) | relative viability ([2]; first compound 0.253 µM) | relative viability ([2]; first compound 0.8 µM) | relative viability ([2]; first compound 2.53 µM) | relative viability ([2]; first compound 8 µM) | relative viability ([3]; first compound 0.08 µM) | relative viability ([3]; first compound 0.253 µM) | relative viability ([3]; first compound 0.8 µM) | relative viability ([3]; first compound 2.53 µM) | relative viability ([3]; first compound 8 µM) | relative viability ([4]; first compound 0.08 µM) | relative viability ([4]; first compound 0.253 µM) | relative viability ([4]; first compound 0.8 µM) | relative viability ([4]; first compound 2.53 µM) | relative viability ([4]; first compound 8 µM)
1 | 201T | 0.461 | 0.441 | 0.486 | 0.473 | 1.09 | 1.1 | 1.07 | 1.11 | 1 | 0.324 | 0.319 | 0.341 | 0.332 | 0.354 | 1.24 | 1.21 | 1.22 | 1.27 | 1.16
2 | A549 | 0.131 | 0.153 | 0.158 | 0.0741 | – | – | – | – | – | – | – | – | – | – | 1.18 | 1.16 | 1.27 | 1.17 | 0.934
3 | A-427 | 0.233 | 0.315 | 0.238 | 0.222 | 0.956 | 1.02 | 0.981 | 1.04 | 0.966 | 0.996 | 1.02 | 0.929 | 1.07 | 0.996 | 1.06 | 1.04 | 0.83 | 1.12 | 1.02
4 | ABC-1 | 0.245 | 0.242 | 0.234 | 0.164 | 0.277 | 0.393 | 0.281 | 0.246 | 0.226 | – | – | – | – | – | – | – | – | – | –
5 | BEN | 0.522 | 0.234 | 0.269 | 0.257 | 0.967 | 0.75 | 0.776 | 0.875 | 0.873 | 0.745 | 0.736 | 0.76 | 0.867 | 0.61 | 0.0579 | 0.0527 | 0.0545 | 0.0678 | 0.0519
6 | CAL-12T | 0.531 | 0.579 | 0.272 | 0.188 | 0.843 | 0.914 | 0.788 | 0.979 | 1.03 | 1.25 | 1.18 | 1.14 | 1.18 | 1.13 | 1.2 | 1.45 | 1.14 | 1.5 | 1.35
7 | COR-L23 | 0.459 | 0.412 | 0.287 | 0.144 | 0.982 | 0.953 | 1.06 | 0.962 | 1.03 | 0.206 | 0.202 | 0.2 | 0.199 | 0.192 | 1 | 0.969 | 1.06 | 1.06 | 0.612
8 | COR-L 105 | 0.451 | 0.489 | 0.301 | 0.286 | 0.806 | 0.662 | 0.83 | 0.87 | 0.757 | 1.3 | 1.14 | 1.21 | 1.04 | 1.1 | 0.905 | 0.7 | 0.779 | 0.75 | 0.843
9 | Calu-6 | – | – | – | – | 0.982 | 1.07 | 1.05 | 1.06 | 1.02 | – | – | – | – | – | 0.848 | 0.916 | 0.769 | 0.952 | 0.802
10 | ChaGo-K-1 | 0.459 | 0.392 | 0.404 | 0.451 | 1.05 | 1.03 | 0.986 | 0.958 | 0.557 | 0.256 | 0.257 | 0.272 | 0.256 | 0.242 | 0.933 | 0.955 | 0.968 | 1.06 | 1
11 | EBC-1 | – | – | – | – | 0.648 | 0.515 | 0.585 | 0.494 | 0.636 | – | – | – | – | – | 0.394 | 0.474 | 0.415 | 0.452 | 0.371
12 | EKVX | 0.246 | 0.242 | 0.259 | 0.23 | 1.15 | 0.781 | 0.987 | 1.11 | 1.01 | 0.41 | 0.369 | 0.393 | 0.397 | 0.388 | 0.985 | 0.868 | 0.867 | 0.98 | 1.02
13 | EMC-BAC-2 | 0.52 | 0.524 | 0.495 | 0.585 | 1.1 | 1.06 | 1.06 | 1.14 | 1 | 0.417 | 0.433 | 0.433 | 0.458 | 0.421 | 1.45 | 1.11 | 1.13 | 1.2 | 1.11
14 | EPLC-272H | 0.272 | 0.295 | 0.307 | 0.198 | 0.895 | 0.917 | 0.935 | 0.924 | 0.902 | 0.327 | 0.364 | 0.358 | 0.374 | 0.379 | 1.22 | 1.11 | 1.01 | 1.24 | 1.23
15 | H3255 | 0.489 | 0.384 | 0.313 | 0.31 | 0.719 | 0.685 | 0.802 | 0.875 | 0.741 | 0.545 | 0.576 | 0.559 | 0.556 | 0.57 | 0.502 | 0.477 | 0.487 | 0.604 | 0.646
16 | HARA | 0.415 | 0.52 | 0.503 | 0.358 | 1.14 | 1.08 | 1.03 | 1.13 | 1.01 | 0.212 | 0.214 | 0.252 | 0.206 | 0.237 | 1.15 | 1.15 | 1.18 | 1.14 | 1.11
17 | HCC-15 | 0.468 | 0.422 | 0.401 | 0.241 | 1.16 | 1.02 | 1.02 | 0.985 | 0.992 | 0.221 | 0.229 | 0.213 | 0.235 | 0.24 | 0.754 | 0.693 | 0.692 | 0.693 | 0.705
18 | HCC-44 | 0.15 | 0.199 | 0.154 | 0.205 | 0.903 | 0.835 | 0.931 | 0.905 | 0.9 | 0.703 | 0.692 | 0.649 | 0.675 | 0.728 | 1.03 | 0.863 | 1.01 | 1.02 | 0.969

— the supplement of paper PMC10307832
